Source: patent US6528042B1, “Compositions of flavonoids for use as cytoprotectants and methods of making and using them” (Galileo Laboratories, Inc., priority 1999, dated 2003)

Tests used:
[1] = tested on: Oxidatively competent cells; assay: SYTOX cell death assay in oxidatively competent cells treated with antimycin A; format: cell-based; conditions: for cell death when tested individually: highest concentration tested
Description: Oxidatively competent cells are prepared as described in Example 1. and Example 2.A and are seeded onto 96-well plates at 1×10^3/well or 2.5×10^3/well as passage 15. The cells are grown in DMEM with 10% FBS and 1.5 g/L sodium bicarbonate for 24 or 48 hours to reach 85% confluence. The cells are washed once with HBSS and then 100 μl of HBSS containing different concentration of AA (Sigma, Cat #A 8674) is added to the cells. AA is dissolved in DMSO to make a stock solution of 50 mM, then diluted with HBSS to 25, 12.5, 6.25, 3.125, and 1.56 μM for dose-response curves. The cells, with or without AA, are incubated at 37° C. in a 5% CO2 humidified incubator for 1 to 5 hours. The concentration of AA is chosen to induce 75% or 100% cell death as a screening dose to test the effect of agents to protect against AA- induced cell toxicity. The concentration of agents used for screening will be dependent upon the agents. Certain control groups contain 100 μl of HBSS only.
(§1) SYTOX Green nucleic acid stain is a high-affinity nucleic acid stain that easily penetrates cells with a compromised plasma membrane but will not cross the membrane of live cells. The nucleic acids of dead cells fluoresce bright green at 524 nm when excited with the 488 nm spectral source or with any other 450-500 nm source. […] In the cell viability assay chemical ischemia is created in cells and then cells are incubated with the SYTOX dye. The compound antimycin is used to simulate ischemia at the same time as stimulating the cells with forskolin. […] The assay is performed on cells grown in 96-well format allowing high throughput screening of compounds.
(§2) Compound(s) are mixed with the 1 μM SYTOX working solution and added to the washed cell culture wells. Fluorescence is measured at designated time points (488 nm excitation and 530 nm emission). All of the sample readings subtract the background readings, which is cell-free wells only containing HBSS buffer with SYTOX green dye. The data is compared to non-treated cells (control) and is expressed as mean±S.D. from 4 culture wells. SYTOX Green fluorescence units obtained from each group are corrected for basal fluorescence (cell-free wells with only HBSS and fluorescence reagent). Data are represented as mean±SD. A paired t-test is performed comparing treated groups (Toxin+Agent) with non-treated groups (Toxin only) after subtracting the control groups (HBSS only) for each data set. Comparisons among groups are statistically evaluated by two-tailed t-test (Graphpad Prism Software, version 2.0). Differences are considered significant at P<0.05.
Oxidatively competent cells were treated simultaneously with hesperetin, chrysin and 100 nM antimycin A2.C. The cells were treated with various low concentrations of hesperetin and various concentrations of chrysin (Sigma Chemical Co., cat. #C3018). Hesperetin, chrysin and antimycin A were mixed together before treating the cells. Cell viability was measured at time points up to 5 hours using SYTOX, as described in Example 2.F.
In experiments carried out in support of the invention, various concentrations of diosmin and alpha-tocopherol were tested for synergistic ability to ameliorate disruption of energy metabolism secondary to stress. Oxidatively competent cells were treated simultaneously with diosmin, alpha-tocopherol and antimycin A2.C. The cells were treated with various low concentrations of diosmin (Sigma Chemical Co., cat. #D3525) and various low concentrations of (+/−) alpha-tocopherol. Diosmin, alpha-tocopherol and antimycin were mixed together before treating cells. Cell viability was measured 4 hours after treatment using SYTOX. […] Likewise, the combination of disomin (11-100 μM) with 1.1 μg/ml (+/−) alpha tocopherol was synergistic. […] Diosmin alone provided no protection at a concentration of 100 μM. […] A combination of 100 μM diosmin and 11 μg/ml (+/−) alpha tocopherol was also synergistic. […]

GCL1 cells = assay: SYTOX cell death assay in GCL1 cells treated with antimycin A (chemical ischemia); format: cell-based, rat hepatoma cells (fao) / human fibroblasts (W138) hybrid; conditions: for reduction in cell death: control 82.9%
From the text: At greater than 80% confluence, more than 80% of the cells participate in forming one or more phaselucent, spherical structures that are located between cells, termed bile canicular-like spaces. In contrast to the majority of cell lines maintained in culture which are fermentative, GCL1 cells, when at their maximal density and polarity, are highly oxidative (i.e., they can be readily killed by inhibitors of oxidative phosphorylation or electron transport uncouplers). […] These cells are amenable to use in high throughput screening (HTS) technology.
The cells, with or without AA, are incubated at 37° C. in a 5% CO2 humidified incubator for 1 to 5 hours. […] The concentration of agents used for screening will be dependent upon the agents. Certain control groups contain 100 μl of HBSS only.
as §1
Aliquot at 100 μl. This 10 mM stock is then diluted to 1 mM with DMSO and aliquoted at 25 μL. Both the 10 mM and the 1 mM are stored at −20° C. until use. […] Aliquot at 100 μl and store at −20° C. until use. iv.) HBSS-SYTOX-FORSKOLIN-ANTIMYCIN (H-S-F-A) solution: H-S-F-A solution is made up fresh prior to each assay in sterile 175 ml or 225 ml Falcon bottles. […]
Cells are grown in 96-well black plates (with or without clear bottoms) at a density of 1000 cells per well for 24 hours. The necessary number of 96-well plates containing the specific cell type are obtained and placed in the laminar flow safety cabinet. A sterile microtiter basin is filled with the appropriate volume of pre-warmed 1×HBSS. Using aseptic technique and an 8-channel aspirator, the media is carefully removed from the cells and replaced with 200 μl of 1×HBSS. This is done as quickly as possible to prevent the cells drying out. The plates are then placed in the humidified 37° C. incubators of the Biomek 2000 Side Loader. Four plates are washed at a time so as to minimize the time that the cells are sitting in 1×HBSS prior to addition of the H-S-A-compound test solution.
as §2
Hesperetin, diosmin, luteolin and quercetin were tested individually for their ability to counteract disruptions of normal energy metabolism. Flavonoids were commercially obtained, generally from Sigma Chemical Co., St. Louis, Mo., and/or Aldrich Chemical Co., Milwaukee, Wis.

[2] = cited from earlier work; for abnormalities observed for a week: administered orally to mice at 100 mg/kg (U.S. Pat. No. 5,650,433)
[3] = flavonoid 25 μM, antimycin A 100 nM, 4 hours
[4] = flavonoid 50 μM, antimycin A 100 nM, 4 hours
[5] = flavonoid 100 μM, antimycin A 100 nM, 4 hours
[6] = flavonoid 200 μM, antimycin A 100 nM, 4 hours
[7] = flavonoid 400 μM, antimycin A 100 nM, 4 hours

Structure (SMILES): Cc1c(C)c2c(c(C)c1O)CCC(C)(CCCC(C)CCCC(C)CCCC(C)C)O2 (racemic) [(+/−) alpha-tocopherol, 2,5,7,8-tetramethyl-2-(4′,8′,12′-trimethyltridecyl)-6-chromanol]
- protection ([1]; 10 μg/ml (+/−) alpha-tocopherol by itself): about 15%
- cell death when tested individually [1]: over half of the cells died

Structure (SMILES): Cc1c(C)c2c(c(C)c1O)CC[C@@](C)(CCC[C@H](C)CCC[C@H](C)CCCC(C)C)O2 (relative stereo) [alpha-tocopherol, [2R-2R*(4R*,8R*)]-3,4-dihydro-2,5,7,8-tetramethyl-2-(4,8,12-trimethyltridecyl)-2H-1-benzopyran-6-ol]
- cell death when tested individually [1]: about half of the cells died

Structure (SMILES): COc1ccc(-c2cc(=O)c3c(O)cc(O[C@@H]4O[C@H](CO[C@@H]5O[C@@H](C)[C@H](O)[C@@H](O)[C@H]5O)[C@@H](O)[C@H](O)[C@H]4O)cc3o2)cc1O [Diosmin, reference compound]
- protective effect (GCL1 cells; concentrations less than 400 μM): ineffective
- Cell Death (GCL1 cells; [3]): 84.1% ± 1.6
- Cell Death (GCL1 cells; [4]): 84.9% ± 1.6
- Cell Death (GCL1 cells; [5]): 85.3% ± 0.6
- Cell Death (GCL1 cells; [6]): 85.2% ± 2.0
- Cell Death (GCL1 cells; [7]): 82.5% ± 2.6
- protection ([1]; diosmin 3.3-100 μM by itself, 4 hours): not protective by itself
- protection ([1]; diosmin alone 100 μM): no protection
- protection ([1]; diosmin by itself 33-100 μM): not effective

Structure (SMILES): O=c1cc(-c2ccc(O)c(O)c2)oc2cc(O)cc(O)c12 [Luteolin, 2-(3,4-Dihydroxyphenyl)-5,7-dihydroxy-4H-1-benzopyran-4-one]
- cytoprotective activity (GCL1 cells; concentrations of about 60 μM and above): exhibited cytoprotective activity
- Cell Death (GCL1 cells; flavonoid 15.6 μM, antimycin A 100 nM, 4 hours): 78.0% ± 0.9
- Cell Death (GCL1 cells; flavonoid 31.25 μM, antimycin A 100 nM, 4 hours): 74.5% ± 1.2
- Cell Death (GCL1 cells; flavonoid 62.5 μM, antimycin A 100 nM, 4 hours): 69.0% ± 2.2
- Cell Death (GCL1 cells; flavonoid 125 μM, antimycin A 100 nM, 4 hours): 53.7% ± 5.4
- Cell Death (GCL1 cells; flavonoid 250 μM, antimycin A 100 nM, 4 hours): 33.4% ± 0.6
- abnormalities observed for a week [2]: the same results were reported

Structure (SMILES): O=c1c(O)c(-c2ccc(O)c(O)c2)oc2cc(O)cc(O)c12 [Quercetin, 2-(3,4-Dihydroxyphenyl)-3,5,7-trihydroxy-4H-1-benzopyran-4-one]
- protective activity (GCL1 cells; concentrations of 25 μM and above): protective activity is apparent
- Cell Death (GCL1 cells; [3]): 68.1% ± 1.7
- Cell Death (GCL1 cells; [4]): 57.1% ± 2.4
- Cell Death (GCL1 cells; [5]): 22.0% ± 2.2
- Cell Death (GCL1 cells; [6]): 0.0% ± 0.9
- Cell Death (GCL1 cells; [7]): 1.0% ± 0.5

Structure (SMILES): Nc1ncnc2c1ncn2[C@@H]1O[C@H](CO)[C@@H](O)[C@H]1O [adenosine, 9-β-D-ribofuranosyl-9H-purin-6-amine]
- protection (GCL1 cells; 11 μM adenosine alone): 17.9%

Structure (SMILES): COc1ccc(-c2coc3cc(O)cc(O)c3c2=O)cc1 [biochanin A, 5,7-dihydroxy-4′-methoxyiso-flavone]
- cell death when tested individually [1]: about half of the cells died

Structure (SMILES): C[N+](C)(C)CC(O)CC(=O)[O-].O=C(O)C(O)C(O)C(=O)O (centres unmarked) [carnitine tartate, carnitine tartrate]
- Cell Death (GCL1 cells; 10 mM carnitine tartrate alone, 4 hours, control 97.4%): 59.5%

Structure (SMILES): O=c1cc(-c2ccccc2)oc2cc(O)cc(O)c12 [chrysin, 5,7-dihydroxy-2-phenyl-4H-1-benzopyran-4-one]
- Cell Death ([1]; 60 μM chrysin alone, control 72.9%): 50.1%

Structure (SMILES): O=c1c(-c2ccc(O)cc2)coc2cc(O)ccc12 [daidzein, 7-hydroxy-3-(4-hydroxyphenyl)-4H-1-benzopyran-4-one]
- cell death when tested individually [1]: over half of the cells died

Structure (SMILES): Cc1c(O)cc2c(c1C)O[C@](C)(CCC[C@H](C)CCC[C@H](C)CCCC(C)C)CC2 [gamma-tocopherol, 3,4-dihydro-2,7,8-trimethyl-2-(4,8,12-trimethyltridecyl)-2H-1-benzyopyran-6-ol]
- protection ([1]; gamma-tocopherol 0.03-0.3 μg/ml by itself): not protective by itself

Structure (SMILES): NCC(=O)O [glycine, aminoacetic acid]
- protection (GCL1 cells; 100 μM glycine alone, 4 hours, control cell death 82.1%): 40.8%

Structure (SMILES): COc1ccc([C@@H]2CC(=O)c3c(O)cc(O[C@@H]4O[C@H](CO[C@@H]5O[C@@H](C)[C@H](O)[C@@H](O)[C@H]5O)[C@@H](O)[C@H](O)[C@H]4O)cc3O2)cc1O [hesperidin, (S)-7-[[6O-(6-Deoxy-α-L-mannopyranosyl)-β-D-glucopyranosyl]oxy]-2,3-dihydro-5-hydroxy-2-(3-hydroxy-4-methoxyphenyl)-4H-1-benzopyran-4-one]
- abnormalities observed for a week [2]: the same results were reported
- toxicity ([2]; orally administered to a mouse at 1000 mg/kg (U.S. Pat. No. 5,763,414)): no toxicity
- effects on liver function ([2]; tests using mice): no adverse effects on liver function
- toxicity or mitogenicity ([2]; tests using mice): little toxicity or mitogenicity

Structure (SMILES): O=C(CO)[C@H](O)[C@H](O)CO [ribulose]
- reduction in cell death (GCL1 cells; 1.25 mM ribulose by itself, 4 hours): 4.4%
- reduction in cell death (GCL1 cells; 10 mM ribulose alone, 4 hours): 26.5%
